Source: patent US9422248B2 (University of Iowa Research Foundation, priority 2012, dated 2016)
Several values for one entry are separate records, joined by “and”; a condition that tells them apart may be missing. Identical values can stand only once. Entries after “also recorded” stand apart in the source; their conditions may differ. Like-named read-outs stand apart in the source and are kept apart here.

Tests used:
[1] = system: seizures; assay: anticonvulsant properties (model not stated); details: in vivo
[2] = system: 6 Hz (32 mA) model; details: cited from earlier work; for anticonvulsant activity in the 6 Hz model: mouse 6 Hz (32 mA), previously shown; for ED50: 6 Hz model, earlier work
[3] = system: maximal electroshock (MES) model; details: mouse; previously demonstrated; cited from earlier work
[4] = system: scMET model (pentylenetetrazole, Metrazol); details: mouse; previously demonstrated; cited from earlier work
[5] = system: maximal electroshock (MES) model; assay: maximal electroshock (MES) model; type: in vivo, mouse; details: for responders at 30 mg/kg / responders at 100 mg/kg / responders at 300 mg/kg: Mus musculus, MES; for responders at 30 mg/kg: 30 mg/kg ip; for responders at 30 mg/kg / responders at 300 mg/kg: read-out: number of animals protected/number of animals tested; for responders at 100 mg/kg: 100 mg/kg ip, read-out: number of animals protected/number of animals tested (converted); for responders at 300 mg/kg: 300 mg/kg ip
Text: (§1) All compounds (FIG. 1) were screened in three whole mouse models: the maximal electroshock model (MES), the scMET test (pentylenetetrazole, Metrazol), and the 6 Hz psychomotor seizure model of partial epilepsy (32 mA). Adult male CF No 1 albino mice (26-30 g) were used for the 6 Hz test and 18-25 g mice were used in the MES and scMet tests. The animals are housed, fed, and handled in a manner consistent with the recommendations in the National Council Publication, “Guide for the Care and Use of Laboratory Animals”. The animal studies were performed by the NINDS Anticonvulsant Screening Program under IACUC number 09-12014. All compounds were administered ip in polyethylene glycol, 30%.
(§2) The MES model, which generates generalized tonic-clonic seizures, involved pretreating mice with experimental compound, and administering 60 Hz of alternating current (50 mA) for 2 s via corneal electrodes. Prior to current administration, the animal's corneas were treated topically with 1% tetracaine. Animals are considered protected if the hindlimb tonic extensor component is absent. The scMET test was done by pretreating mice with experimental compound and administering 85 mg/kg Metrazol into the loose folds of the skin in the midline of the neck. Eighty-five mg/kg Metrazol is the dose that causes seizures in 97% (CD97) of control animals.

[6] = system: scMET model (pentylenetetrazole, Metrazol); assay: scMET test (subcutaneous Metrazol); type: in vivo, mouse; details: for responders at 30 mg/kg / responders at 100 mg/kg / responders at 300 mg/kg: Mus musculus, scMET, read-out: number of animals protected/number of animals tested; for responders at 30 mg/kg: 30 mg/kg ip; for responders at 100 mg/kg: 100 mg/kg ip; for responders at 300 mg/kg: 300 mg/kg ip
Text: as §1, §2

[7] = system: 6 Hz (32 mA) model; assay: 6 Hz (32 mA) psychomotor seizure model of partial epilepsy; type: in vivo, mouse; details: for Protective effects, number of animals protected/number of animals tested: 6 Hz (32 mA), 100 mg/kg ip
Text: as §1
(§3) The 6 Hz test (also known as the minimal clonic seizure, or psychomotor test) involved delivering a corneal stimulus of 32 mA for 3 s. This current elicits psychomotor seizures in 97% of untreated animals. Seizures consist of a minimal clonic phase followed by stereotyped automatistic behaviors. Animals not showing such behaviors were considered protected. Toxicity was determined by the rotorod test. For this test, the animal is placed on a rotorod at 6 rpm following dosing. The animal is considered toxic if it falls off the rotorod three times in a 1 min period. The ED50, TD50 and confidence intervals were determined by probit analysis.

[8] = system: rotorod test; assay: Toxicity by the rotorod test; type: in vivo
Text: All compounds (FIG. 1) were screened in three whole mouse models: the maximal electroshock model (MES), the scMET test (pentylenetetrazole, Metrazol), and the 6 Hz psychomotor seizure model of partial epilepsy (32 mA). Adult male CF No 1 albino mice (26-30 g) were used for the 6 Hz test and 18-25 g mice were used in the MES and scMet tests. The animals are housed, fed, and handled in a manner consistent with the recommendations in the National Council Publication, “Guide for the Care and Use of Laboratory Animals”. […] All compounds were administered ip in polyethylene glycol, 30%.
as §3, with “This current elicits psychomotor seizures in 97% of untreated animals.” left out

[9] = analgesic properties (test not described)

SMILES | anticonvulsant activity in the 6 Hz model [2] | responders at 30 mg/kg ([5]; 0.5 h) [%] | responders at 100 mg/kg ([5]; 0.5 h) [%] | responders at 100 mg/kg ([5]; 4 h) [%] | responders at 300 mg/kg ([5]; 0.5 h) [%] | responders at 300 mg/kg ([5]; 4 h) [%] | responders at 30 mg/kg ([6]; 0.5 h) [%] | responders at 30 mg/kg ([6]; 4 h) [%] | responders at 100 mg/kg ([6]; 0.5 h) [%] | responders at 100 mg/kg ([6]; 4 h) [%] | responders at 300 mg/kg ([6]; 0.5 h) [%] | responders at 300 mg/kg ([6]; 4 h) [%] | Toxicity, animals/number of animals tested ([8]; dose 100 mg/kg ip, 0.25 h) | Toxicity, animals/number of animals tested ([8]; dose 100 mg/kg ip, 0.5 h) | Toxicity, animals/number of animals tested ([8]; dose 100 mg/kg ip, 1 h) | Toxicity, animals/number of animals tested ([8]; dose 100 mg/kg ip, 2 h) | Toxicity, animals/number of animals tested ([8]; dose 100 mg/kg ip, 4 h) | further results
CC(C)c1nc(C(O)C(F)(F)F)ccc1O (stereo not shown) [Compound 20, 2-isopropyl-6-(2,2,2-trifluoro-1-hydroxyethyl)pyridin-3-ol] | – | – | – | – | – | – | – | – | – | – | – | – | – | – | – | – | – | anticonvulsant properties [1]: anticonvulsant properties
Cc1cc(C(O)C(F)(F)F)cc(C)c1O (stereo not shown) [DMPF] | lack of activity | – | – | – | – | – | – | – | – | – | – | – | – | – | – | – | – | –
CC(C)c1cc(C(O)C(F)(F)F)cc(C(C)C)c1O (stereo not shown) [MB003] | good anticonvulsant activity; also recorded: protective | – | – | – | – | – | – | – | – | – | – | – | – | – | – | – | – | protective effects in the MES model [3]: little to no protective effects; ED50 [2]: 38.6 mg/kg; protective effects in the scMET model [4]: little to no protective effects
CCC(C)c1cc(C(O)C(F)(F)F)cc(C(C)CC)c1O (stereo not shown) [MB050] | good anticonvulsant activity | – | – | – | – | – | – | – | – | – | – | – | – | – | – | – | – | ED50 [2]: 73 mg/kg
Cc1cc(C(O)C(F)(F)F)ccc1O (stereo not shown) [RM170, 2-Methyl-4-(2,2,2-trifluoro-1-hydroxy-ethyl)-phenol] | – | 0 | 0 | 0 | 100 | 100 | 0 | 0 | 0 | 0 | 0 | 0 | 0/3 | 0/8 | 0/3 | 0/3 | 0/4 | MES protection ([5]; 300 mg/kg dose): some protection; MES protection, time points after dosing ([5]; 300 mg/kg dose): protection at both 0.5 and 4 h; responders at 100 mg/kg ([5]; 0.25 h): 0%; responders at 100 mg/kg ([5]; 1 h): 0%; responders at 100 mg/kg ([5]; 2 h): 0%; responders at 100 mg/kg ([5]; 6 h): 0%; Protective effects, number of animals protected/number of animals tested ([7]; 0.25 h): 0/4; Protective effects, number of animals protected/number of animals tested ([7]; 0.5 h): 0/4; Protective effects, number of animals protected/number of animals tested ([7]; 1 h): 2/4; Protective effects, number of animals protected/number of animals tested ([7]; 2 h): 1/4; Protective effects, number of animals protected/number of animals tested ([7]; 4 h): 1/4; animals in which seizures were inhibited ([7]; 6 Hz, 100 mg/kg, any time point from 0.25 to 4 h): no more than 2 of 4; Toxicity, animals/number of animals tested ([8]; dose 100 mg/kg ip, 6 h): 0/3; Toxicity, animals/number of animals tested ([8]; dose 30 ip, 0.5 h): 0/4; Toxicity, animals/number of animals tested ([8]; dose 30 ip, 4 h): 0/2; Toxicity, animals/number of animals tested ([8]; dose 300 ip, 0.5 h): 0/4; Toxicity, animals/number of animals tested ([8]; dose 300 ip, 4 h): 0/2; evidence of toxicity ([8]; doses up to 300 mg/kg): Neither RM170 nor RM166 showed any evidence of toxicity
CCCc1cc(C(O)C(F)(F)F)cc(Br)c1O (stereo not shown) [RM1204, 2-Bromo-6-n-propyl-4-(2,2,2-trifluoro-1-hydroxy-ethyl)-phenol] | – | 0 | 0 | 0 | 0 | 0 | 0 | 0 | 0 | 0 | 0 | 0 | 1/4 | 0/4 | 1/4 | 0/4 | 0/4 | responders at 30 mg/kg ([5]; 4 h): 0%; MES protection ([5]; any dose (30-300 mg/kg ip)): no MES protection; Protective effects, number of animals protected/number of animals tested ([7]; 0.25 h, 100 mg/kg): 4/4 and complete protection; Protective effects, number of animals protected/number of animals tested ([7]; 0.5 h, 100 mg/kg): 4/4 and complete protection; Protective effects, number of animals protected/number of animals tested ([7]; 1 h, 100 mg/kg): partial protection and 2/4; Protective effects, number of animals protected/number of animals tested ([7]; 2 h): 0/4; Protective effects, number of animals protected/number of animals tested ([7]; 4 h): 0/4; toxicity ([8]; mouse, in vivo): only low toxicity
CCCc1cc(C(O)C(F)(F)F)ccc1O (stereo not shown) [RM1208, 2-n-Propyl-4-(2,2,2-trifluoro-1-hydroxy-ethyl)-phenol] | – | 0 | 0 | 0 | 100 | 100 | 0 | 0 | 0 | 0 | 100 | 0 | 0/2 | 0/8 | 0/3 | 0/3 | 0/4 | MES protection ([5]; 300 mg/kg dose): some protection; MES protection, time points after dosing ([5]; 300 mg/kg dose): protection at both 0.5 and 4 h; responders at 30 mg/kg ([5]; 0.25 h): 0%; responders at 30 mg/kg ([5]; 1 h): 0%; responders at 30 mg/kg ([5]; 2 h): 0%; responders at 30 mg/kg ([5]; 4 h): 0%; responders at 30 mg/kg ([5]; 6 h): 0%; scMET protection, time points after dosing ([6]; 300 mg/kg dose): at 0.5 h only; antiseizure activity in the 6 Hz model ([7]; mouse, in vivo): not an active compound; Toxicity, animals/number of animals tested ([8]; dose 100 mg/kg ip, 6 h): 0/3; Toxicity, animals/number of animals tested ([8]; dose 30 ip, 0.5 h): 0/4; Toxicity, animals/number of animals tested ([8]; dose 30 ip, 4 h): 0/2; Toxicity, animals/number of animals tested ([8]; dose 300 ip, 0.5 h): 3/4; Toxicity, animals/number of animals tested ([8]; dose 300 ip, 4 h): 0/2
CC(C)c1cc(C(O)C(F)(F)F)cc(Br)c1O (stereo not shown) [compound 10] | – | – | – | – | – | – | – | – | – | – | – | – | – | – | – | – | – | analgesic properties [9]: analgesic properties
